Test results taken from patent US9434753B2, “Modified creatine compounds” (Gencia Corporation, priority 2011, dated 2016).
“Also recorded” adds a separate entry of the source.

Assays:
[1] = system: recombinant CPK (Native Human Creatine Kinase); assay: Determination of CPK activity (ATP hydrolysis/consumption, luciferase); type: biochemical; settings: 5 mM compound or creatine, 1 mM ATP, CPK 10 units/well, compound 1 compared with equimolar creatine
Experimental: Disclosed herein is an in vitro assay for determining the activity of recombinant CPK on the modified creatine compounds. Recombinant CPK is mixed with ATP and a modified creatine compound of interest. ATP hydrolysis, a measure of the rate of transfer of the gamma phosphate from ATP to the guanidinium groups of the creatine subunit, was measured using luciferase. The rate of ATP hydrolysis/consumption for the modified creatine compound is then compared to the rate of ATP hydrolysis/consumption for creatine. An in vitro assay was performed to determine the activity of recombinant CPK on the modified creatine compounds (CK, Native Human Creatine Kinase from Cell Sciences Catalog No: CSI14786B). Recombinant CPK (10 units/well) is mixed with 1 mM ATP and the compound of example 1 (compound 1) at varying concentrations (5 mM, 2.5 mM, and 1 mM) or creatine (5 mM). ATP hydrolysis; a measure of the rate of transfer of the gamma phosphate from ATP to the guanidinium groups of the creatine subunit was then measured for each sample using luciferase. Luciferase is then added (GLO kit from Promega) according to manufacturer instructions. As ATP is consumed, light is emitted. Every 2 minutes we collected the emitted light in our plate reader in lumens. The data is collected over 30 minutes to generate a slope. The slope is a measure of ATP consumption. […]

[2] = system: Complex I; assay: Complex I (CI) activity microplate assay in treated fibroblasts; type: cell-based; settings: 25 nM, within thirty minutes, compared to 10 μM unmodified creatine
Experimental: Complex I activity was determined using a CI microplate assay (MS 141) from MitoSciences (Eugene, Oreg.) according to the manufacturer's protocol. Fibroblasts were plated in T75 flasks. 24 hours after plating, the cells were treated with various concentrations of compound of example 1 in media for 30 min. The cells were then lysed, and the mitochondria were isolated using reagents provided in the CI assay kit according to the manufacturer's protocol. After determination of the protein concentrations, 20 μg of the purified mitochondria in a total volume of 200 μl was added in quadruplicate to the 96-well microplate and the CI enzyme was immunocaptured within the wells. CI activity was measured colorimetrically with a PHERAstar FS (BMG LABTECH Inc, Cary, N.C., USA) as a change in the absorbance following the oxidation of NADH to NAD+ and the simultaneous reduction of a dye which leads to increased absorbance at 450 nm over time (0-105 min). The average±SD of the quadruplicate values for each time point and treatment group were graphed, and the rate of CI activity was determined by the initial slope (i.e., values in the linear range from 20 to 50 min), expressed as change in optical density per minute.

[3] = system: fibroblasts; assay: Oxygen consumption rate (OCR), XF24 extracellular flux analyzer, fibroblasts; type: cell-based; settings: 5 nM to 500 nM, within thirty minutes of treatment, compared to 10 μM unmodified creatine
Experimental: In this assay, an XF24 extracellular flux analyzer (Seahorse Bioscience, North Billerica, Mass.) was used to measure mitochondrial oxygen consumption in intact cells. The XF24 analyzer creates a transient 7 μl chamber in specialized microplates that allows determination of oxygen and proton concentrations in real time through the measurement of oxygen sensitive dyes by the XF24 instrument. 24 hours prior to OCR measurement, fibroblasts were seeded into 20 wells of the 24 well tissue culture plate while 1 ml of XF Calibrant solution (Seahorse Bioscience, North Billerica, Mass.) was added to each well of a 24 well dual-analyte sensor cartridge (Seahorse Bioscience, North Billerica, Mass.). The sensor cartridge repositioned on the 24 well calibration plate, and the plate was incubated overnight at 37° C. without additional CO2. The day of the experiment, the injection ports on the sensor cartridge were loaded with compound 1 or creatine as indicated at 10× concentrations and placed into the XF24 Flux Analyzer for automated calibration. During the sensor calibration, cells in each of the tissue culture well were rinsed once in 1 mL of unbuffered media. 675 μL of unbuffered media was then added to each well, and the plate was incubated for an hour in the absence of additional CO2. Plates were subsequently placed into the calibrated seahorse XF24 flux analyzer for bioenergetic analysis. […]

[4] = system: HepG2 human liver carcinoma cells; assay: Oxygen consumption rate (OCR) in HepG2 cells; type: cell-based; settings: control is 100
Experimental: In this assay, an XF24 extracellular flux analyzer (Seahorse Bioscience, North Billerica, Mass.) was used to measure mitochondrial oxygen consumption in intact cells. The XF24 analyzer creates a transient 7 μl chamber in specialized microplates that allows determination of oxygen and proton concentrations in real time through the measurement of oxygen sensitive dyes by the XF24 instrument. 24 hours prior to OCR measurement, fibroblasts were seeded into 20 wells of the 24 well tissue culture plate while 1 ml of XF Calibrant solution (Seahorse Bioscience, North Billerica, Mass.) was added to each well of a 24 well dual-analyte sensor cartridge (Seahorse Bioscience, North Billerica, Mass.). The sensor cartridge repositioned on the 24 well calibration plate, and the plate was incubated overnight at 37° C. without additional CO2.
The day of the experiment, the injection ports on the sensor cartridge were loaded with compound 1 or creatine as indicated at 10× concentrations and placed into the XF24 Flux Analyzer for automated calibration. During the sensor calibration, cells in each of the tissue culture well were rinsed once in 1 mL of unbuffered media. 675 μL of unbuffered media was then added to each well, and the plate was incubated for an hour in the absence of additional CO2. Plates were subsequently placed into the calibrated seahorse XF24 flux analyzer for bioenergetic analysis. An equivalent number of cells per well are plated using a cell counter. Further normalization is achieved by taking baseline measurements of OCR on a well-by-well basis, and the increase observed is a comparison to the same well prior to treatment. Thus each well serves as its own control.
Using the same procedure, the oxygen consumption rate (OCR) for additional compounds were measure in HepG2 human liver carcinoma cells. Compounds were added in concentrations ranging from 0.25 nM to 200 nM.

In the case of `CN(CC(=O)NCCC[P+](c1ccccc1)(c1ccccc1)c1ccccc1)C(=N)N` [Example 1, N^2-[ammonio(imino)methyl]-N^2-methyl-N-[3-(triphenylphosphonio)propyl]glycinamide bis(trifluoroacetate)], the “rate of ATP hydrolysis/consumption” value ([1]; bis(trifluoroacetate)) is reported as “higher rate of ATP hydrolysis/consumption relative to creatine; also recorded: significantly higher rate of ATP hydrolysis/consumption than creatine”, the “Complex I activity (change in optical density per minute)” value [2] is reported as “significant increase in Complex I activity” and the oxygen consumption rate [3] is reported as “significant increase in oxygen consumption rate”. For the same molecule, the OCR ([4]; 10 nM) was 124%.

Molecule `CN(CC(=O)N(C)CCC[P+](c1ccccc1)(c1ccccc1)c1ccccc1)C(=N)N` [Example 2, N^2-[ammonio(imino)methyl]-N,N^2-dimethyl-N-[3-(triphenylphosphonio)propyl]glycinamide bis(trifluoroacetate)] has an OCR ([4]; 10 nM) of 106%.

`CN(CCC(=O)NCCCC[P+](c1ccccc1)(c1ccccc1)c1ccccc1)C(=N)N.O=C(O)C(F)(F)F.O=C([O-])C(F)(F)F` [Example 5, N^3-[ammonio(imino)methyl]-N^3-methyl-N-[4-(triphenylphosphonio)butyl]-O-alaninamide bis(trifluoroacetate)] was tested, and the OCR ([4]; 10 nM) was 117.9%.

In the case of `CN(CCCC(=O)NCCCC[P+](c1ccccc1)(c1ccccc1)c1ccccc1)C(=N)N.O=C(O)C(F)(F)F.O=C([O-])C(F)(F)F` [Example 6, {4-[(4-{[ammonio(imino)methyl](methyl)amino}butanoyl)amino]butyl}(triphenyl)phosphonium bis(trifluoroacetate)], the OCR ([4]; 0.25 nM) is reported as 121%.

`CN(CCC(C)(C)C(=O)NCCCC[P+](c1ccccc1)(c1ccccc1)c1ccccc1)C(=N)N.O=C(O)C(F)(F)F.O=C([O-])C(F)(F)F` [Example 7, {4-[(4-{[ammonio(imino)methyl](methyl)amino}-2,2-dimethylbutanoyl)amino]butyl}(triphenyl)phosphonium bis(trifluoroacetate)] showed an OCR ([4]; 20 nM) of 112%.

In the case of `CN(CC1(C(=O)NCCC[P+](c2ccccc2)(c2ccccc2)c2ccccc2)CC1)C(=N)N.O=C(O)C(F)(F)F.O=C([O-])C(F)(F)F` [Example 8, [3-({[1-({[ammonio(imino)methyl](methyl)amino}methyl)cyclopropyl]carbonyl}amino)propyl](triphenyl)phosphonium bis(trifluoroacetate)], the OCR ([4]; 2.5 nM) is reported as 115.7%.

`CN(CC1(C(=O)NCCC[P+](c2ccccc2)(c2ccccc2)c2ccccc2)CCOCC1)C(=N)N.O=C(O)C(F)(F)F.O=C([O-])C(F)(F)F` [Example 9, [3-({[4-({[ammonio(imino)methyl](methyl)amino}methyl)tetrahydro-2H-pyran-4-yl]carbonyl}amino)propyl](triphenyl)phosphonium bis(trifluoroacetate)] was tested, and the OCR ([4]; 2.5 nM) was 121.9%.

`CN(CC(=O)O)C(=N)N` [creatine, 2-(carbamimidoyl-methyl-amino) acetic acid] was tested, and the “rate of ATP hydrolysis/consumption” value [1] was “increase in ATP hydrolysis/consumption”.
